Data as given in a melting point compilation (Tetko et al.; mined from patent text by program, amines drawn as free bases though some values may be those of a salt).

SMILES	melting point [°C]
CCCCCCCCCCCCCCCCCC(=O)OC1CC(C)(C)N(OC(=O)CCCCCCCCCCCCCCCCC)C(C)(C)C1	62 to 65
CCCCC(=N)NC(=O)Nc1cccc([N+](=O)[O-])c1	161 to 163
NC1SC=CN1Sc1ccc(F)cc1F (configuration not stated)	116 to 117
CC(=O)Nc1ccc(CSc2ccc(CC(=O)O)cc2)c(C(=O)O)c1	205 to 207
Nc1nc(C(F)(F)F)nc2c1ncn2C1OC(CO)C(O)C1O (configuration not stated)	173 to 175
CC(C)(CC(=O)O)C(Br)CC(Cl)(Cl)Cl (configuration not stated)	123 to 124
C=CCOc1ccc(-c2ccc(C(=O)OC)cc2)cc1	149
Fc1ccc(C23COC(c4ccc(Cl)cc4)(OC2)OC3)cc1	251 to 252
O=C(NCCO)c1cccc(-c2cccc3c2OC(Cc2cccc(C(F)(F)F)c2)C3)c1 (configuration not stated)	161 to 162
COc1cc(COc2nn(-c3ccccc3)cc2C#N)ccc1OCc1nc(-c2ccccc2)oc1C	174 to 175
CCC(=O)Oc1cc(OC)cc(OC)c1C(=O)C=Cc1ccc(C)o1	72.5
CCOC(=O)C1(C(=O)O)Cc2cc(OC)c(OC)cc2C1	146 to 148
CCCc1nn(-c2ccc(C(F)(F)F)cn2)cc1CCCCOc1cccc(CC(=O)O)c1	96 to 97
O=c1[nH]c(=O)n(CCCCCN2CCC(OC(c3ccccc3)c3ccccc3)CC2)c2ccccc12	173 to 174
Cc1ccc(-c2c(O)nn(CCO[Si](C)(C)C(C)(C)C)c2N)cc1	194 to 195
CCCCCCCCCCCCOc1cc(CC#N)c(SC)cc1CC#N	100 to 102
Cc1noc(NS(=O)(=O)c2cccc3c(NC(C)C)cccc23)c1C	156 to 159

SMILES	melting point [°C]
CC(=O)ON1C(C)(C)CC(OC(=O)c2ccccc2)CC1(C)C	110 to 112
CCCCCCCN(CCN1CCN(CCSc2nc3cccc(C(=O)OC)c3o2)CC1)C(=O)Nc1c(C(C)C)cccc1C(C)C	125 to 126
CC1OC(n2cc(F)c(N)nc2=O)C(O)C1OC(=O)c1ccccc1 (configuration not stated)	127 to 129
COc1ccc(N(Cc2cccc3ccccc23)c2ccccc2)cc1	154 to 159
CCOC(=O)CCc1ccc(OC)c(OCc2ccccc2)c1	49.5 to 50.5
CC(=O)c1ccc(-n2c(-c3sc(Nc4ccccc4)nc3C)nc3ccccc3c2=O)cc1	271 to 273
CC(C)Cc1cncc(O)n1	130 to 131
C=C(C)c1ccc(C(C)(c2ccc(C(=C)C)cc2)c2ccc(C(=C)C)cc2)cc1	28
CC(=O)N1C(C)(C)CC(O)CC1(C)C	102 to 104
Oc1ccc(OCCN2CCN(c3ccccc3)CC2)cc1	95 to 100
CC(C)n1nc(-c2sc(NC(=O)c3ccc4ccccc4c3)nc2-c2ccccc2)ccc1=O	227 to 229
CC(=O)C(=O)Nc1ccc(Cl)cc1	151
CC1(C)[C@H](CN2CCCCS2(=O)=O)CC[C@]1(C)NCC(=O)N1C[C@@H](F)C[C@H]1C#N	186 to 190
S=C(Nc1ccc(Nc2ccccc2)cc1)Nc1ccc(Nc2ccccc2)cc1	164 to 171
Cc1cn(-c2ccc(NC(=O)c3ccc(C)c(C#Cc4ccc(NC(C)C)nn4)c3)cc2C(F)(F)F)cn1	141 to 143
O=C(O)[C@@H]1C[C@@H](c2ccccc2)CN1C(=O)c1ccccc1Br	146 to 147

More lines, now with the values ahead:

melting point [°C]	SMILES
110 to 112	O=c1c2c(Cl)cc(Cl)cc2nc2n1CCCCC2
130	C=CCc1cc(CC(=O)O)ccc1OCc1ccc2ccccc2n1
78 to 80	CC(C)(C)OC(=O)N1CCC=C(Cc2c[nH]c3ccc(F)cc23)C1
220 to 222	CC1Cc2cc(C(O)C(C)N3CCC(n4c(=O)[nH]c5ccccc54)CC3)ccc2S1 (configuration not stated)
164	Cc1ccc(-c2ccc3c(c2)C=C(C(=O)Nc2ccc(CCl)cc2)CCO3)cc1
> 240	Cn1ccnc1Sc1ccc(Nc2c(C#N)cnc3sccc23)cc1Cl
166	COC(=O)c1c(Sc2ccc(OC)cc2)nc(C(=O)c2ccccc2)n1Cc1cc2c(cc1Cl)OCO2
120 to 123	COc1ccc2c(c1)Sc1ccc(SC)cc1C(Cl)C2 (configuration not stated)
165 to 167	Fc1ccc2c(c1)N=C(N1CCNCC1)c1sccc1N2
127 to 130	O=C(Nc1cc(C(F)(F)F)ccc1N1CCc2ccccc21)c1ccccc1F
180 to 181	Cn1c(C(F)(F)F)ccc(-c2cc(C#N)c(Cl)cc2F)c1=O
280	Cn1c(=O)n(Cc2ccc(F)cc2)c(=O)c2cc(C(=O)c3nc(Br)c4ccccn34)ccc21
91 to 94	CC(CCC(=O)O)(c1ccc(OCc2ccc3ccccc3n2)c(Cl)c1)c1ccc(OCc2ccc3ccccc3n2)c(Cl)c1
92	O=C1COC(CCCOC(=O)c2ccccc2)(c2ccc(Cl)c(Cl)c2)CN1 (configuration not stated)
80 to 81	COc1c(Cl)cc(N)cc1Cl
58 to 60	CCOC(=O)c1cnoc1-c1ccc(Cl)cc1
180	N#Cc1ccc(O[C@@H]2c3ncccc3C[C@H]2N2CCC[C@@H](N)C2)c(Cl)c1

melting point [°C]	SMILES
171 to 172	ClCCOc1ccc(C2=C(c3ccccc3)CCCc3ccccc32)cc1
140 to 142	C[C@@H](N(CC(=O)O)C(=O)c1ccc(C(F)(F)F)cc1)[C@](O)(Cn1cncn1)c1ccc(Cl)cc1Cl (relative stereo)
175 to 180	O=[N+]([O-])c1cn2c(n1)O[C@@H](COc1ccc(N3CCC(COc4ccc(C(F)(F)F)cc4)CC3)cc1)C2
245 to 250	CC(C)(C)OC(=O)N1CCN(C(=O)c2nc3c(N)nc(N)nc3nc2N)CC1
108	COC(=O)C(C)(C)OCc1cc2nc(Cl)ccc2n1S(=O)(=O)c1cccc2ccccc12
236 to 237	Cn1nc(-c2cccc(N3Cc4cc(C(C)(C)C)ccc4C3=O)c2CO)cc(Nc2ccccn2)c1=O
205 to 207	Cc1oc(-c2ccccc2)nc1CCOc1ccc(C[C@@H](C(=O)O)N2CCN(S(=O)(=O)c3ccc([N+](=O)[O-])cc3)CC2)cc1
> 220	Oc1ccc(-c2n[nH]c3ncnc(Nc4cccc(Cl)c4)c23)cc1
211	CC(=O)Nc1c(Cl)c(C(C)(C)C)nn1-c1c(Cl)cc(C(F)(F)F)cc1Cl
147 to 149	C#CCN1CCC[C@H](NCc2ccccc2OC)[C@@H]1c1ccccc1 (relative stereo)
177 to 180	COCC(F)(F)c1nc2nc(C)c(F)cc2cc1C(=O)C1C(=O)C2CCC(C2)C1=O (configuration not stated)
52 to 56	CC(C)(C)OC(=O)N1[C@@H](CC2CCCCC2)[C@H](c2ccco2)OC1(C)C
49 to 51	COc1ccc2c(c1)SCCC2=O
60	Cc1cc(C)cc(-c2cnn3c(-c4cccc(-c5nnn(CCN6CCCC6)n5)c4)ccnc23)c1
64	N#CCCCCCCc1nc(-c2ccc(Cl)cc2)c(-c2ccc(Cl)cc2)o1
270 to 272	CS(=O)(=O)N1CCCn2c(nc3c(N)nc4c(c32)CCCC4)C1
120 to 121	Cc1cc(SCc2cc(-c3ccc(C(F)(F)F)cc3)on2)c(Cl)cc1OCC(=O)O
